# Values of other authors as cited in patent EP0584511B1, “PROCESS FOR THE PREPARATION OF A COMPOSITE TEXTILE MATERIAL” (ALCANTARA S.p.A., priority 1992, dated 1994).
# Settings: substituted aromatic amines proposed as replacement extenders; background statement
row,Molecule,classification at Ames's test
1,Cc1cc(Cc2cc(C)c(N)c(C(C)C)c2)cc(C(C)C)c1N [4-4' methylene-bis-(2 isopropyl-6 methylaniline)],non cancerogenic
2,diethyltoluene diamine,non cancerogenic
3,"CCc1cc(Cc2cc(CC)c(N)c(CC)c2Cl)c(Cl)c(CC)c1N [4-4' methylene-bis-(3-chloro-2,6-diethylaniline)]",non cancerogenic
